According to patent publication US7132419B2, “Pharmaceutical compounds” (Xenova Limited, priority 2000, dated 2006):

Key:
[1] = biological target: T1, topoisomerase I (Homo sapiens, UniProt P11387); assay: Stabilisation of cleavable complexes, topoisomerase I; assay type: biochemical; settings: range where an increase in cleavable complexes was observed relative to controls in the absence of drug
T1 sequence (P11387 1-765): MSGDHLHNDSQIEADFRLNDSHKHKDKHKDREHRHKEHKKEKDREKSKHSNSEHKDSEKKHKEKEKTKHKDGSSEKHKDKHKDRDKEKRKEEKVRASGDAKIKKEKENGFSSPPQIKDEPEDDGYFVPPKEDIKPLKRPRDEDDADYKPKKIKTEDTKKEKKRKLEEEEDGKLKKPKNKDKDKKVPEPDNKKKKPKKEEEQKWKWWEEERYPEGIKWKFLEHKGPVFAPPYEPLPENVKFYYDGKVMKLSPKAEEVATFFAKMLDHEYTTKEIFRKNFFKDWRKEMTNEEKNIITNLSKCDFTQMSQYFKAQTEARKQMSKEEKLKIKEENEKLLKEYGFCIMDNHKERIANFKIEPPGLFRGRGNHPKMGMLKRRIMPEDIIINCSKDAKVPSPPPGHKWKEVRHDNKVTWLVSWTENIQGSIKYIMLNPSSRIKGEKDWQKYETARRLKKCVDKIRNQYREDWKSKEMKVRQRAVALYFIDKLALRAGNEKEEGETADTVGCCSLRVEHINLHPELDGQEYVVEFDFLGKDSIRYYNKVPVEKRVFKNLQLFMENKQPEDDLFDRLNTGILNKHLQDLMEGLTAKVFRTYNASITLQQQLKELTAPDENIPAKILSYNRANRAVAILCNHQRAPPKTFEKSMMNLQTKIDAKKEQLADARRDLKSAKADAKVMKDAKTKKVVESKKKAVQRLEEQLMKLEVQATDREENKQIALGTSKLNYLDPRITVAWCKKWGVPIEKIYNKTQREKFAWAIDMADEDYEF
Description: (§1) Compounds were also studied for their ability to stabilize cleavable complexes in the presence of either topoisomerase I or II essentially as described previously (Finlay et al, Eur J. Cancer 32A, 708–714, 1996). Presence of cleavable complexes was indicated by an increase in the number and intensity of bands observed after electrophoresis and autoradiography. The results are expressed as the effective concentration range where an increase in cleavable complexes was observed relative to controls in the absence of drug.

[2] = system: topoisomerase II; assay: Stabilisation of cleavable complexes, topoisomerase II; assay type: biochemical; settings: range where an increase in cleavable complexes was observed relative to controls in the absence of drug
Description: as §1

[3] = system: drug resistant human small cell lung carcinoma cell line H69/LX4 which overexpresses P-glycoprotein (Pgp); assay: Cytotoxicity, drug resistant H69/LX4 cell line (AlamarBlue); assay type: cell-based; settings: for IC50: concentration required to give 50% cell kill, 5–6 days incubation; for Rf (resistance factor): IC50 in H69/LX4 divided by IC50 in H69/P, Pgp-dependent MDR
Description: (§2) The cytotoxicity of compounds of formula (I) was measured using the H69 parental (H69/P) human small cell lung carcinoma cell line and the drug resistant human small cell lung carcinoma cell line H69/LX4 which overexpresses P-glycoprotein (Pgp). The cytotoxicity, as measured by the IC50 (concentration required to give 50% cell kill) in the H69/LX4 cell line divided by the cytotoxicity in the H69/P cell line gives an indication of the degree to which a compound is affected by Pgp-dependent MDR and is termed the resistance factor (Rf) of the compound.
(§3) H69/P and H69/LX4 cells were pipetted into 96-well tissue culture plates and then allowed to incubate at 37° C. for 4 h. […] The plates were incubated for 5–6 days before adding AlamarBlue to each well and returning the plates to the incubator for 5–8 h to allow colour development. The cell numbers in the plates at the end of this period were directly proportional to the absorbance measured at a wavelength of 570 nm (reference wavelength 600 nm).

[4] = system: amsacrine-resistant Jurkat human leukaemia cell line (JLA); assay: Cytotoxicity, amsacrine-resistant Jurkat cell line JLA; assay type: cell-based; settings: for IC50: concentration required to give 50% cell kill; for Rf (JLA/JLC): IC50 in JLA divided by IC50 in JLC, atypical drug resistance
Description: (§4) The cytotoxicity of the compounds described herein was also measured using the Jurkat human leukaemia cell line (JLC) and also the amsacrine-resistant Jurkat human leukaemia cell line (JLA) and the doxorubicin-resistant Jurkat human leukaemia cell line (JLD). The cytotoxicity, as measured by the IC50 (concentration required to give 50% cell kill) in the JLA or JLD cell line divided by the cytotoxicity in the JLC cell line gives an indication of the degree to which a compound may be affected by atypical drug resistance and is termed the resistance factor (Rf) of the compound. The method used has been described previously (Finlay et al, Eur J. Cancer 32A, 708–714, 1996). Compounds were active in the range 1 nM to 5 μM.

[5] = system: COR-L23 parental (COR-L23/P) human non-small cell lung carcinoma cell line; assay: Cytotoxicity, COR-L23 parental cell line (SRB assay); assay type: cell-based; settings: concentration required to give 50% cell kill, 5–6 days incubation
Description: (§5) The cytotoxicity of the compounds described herein was also measured using the COR-L23 parental (COR-L23/P) human non-small cell lung carcinoma cell line and also the drug resistant human non-small cell lung carcinoma cell line COR-L23/R which overexpresses multidrug resistance associated protein (MRP). The cytotoxicity, as measured by the IC50 (concentration required to give 50% cell kill) in the L23/R cell line divided by the cytotoxicity in the L23/P cell line gives an indication of the degree to which a compound may be affected by MRP-dependant MDR and is termed the resistance factor (Rf) of the compound.
(§6) L23/P and L23/R cells were pipetted into 96-well tissue culture plates and then allowed to incubate at 37° C. for 4 h. […] The plates were incubated for 5–6 days before proliferation was assessed using the sulphurhodamine B (SRB) assay as described by Skehan et al, J Natl Cancer Inst 1990, 82, pp 1107–1112.

[6] = system: doxorubicin-resistant Jurkat human leukaemia cell line (JLD); assay: Cytotoxicity, doxorubicin-resistant Jurkat cell line JLD; assay type: cell-based; settings: for IC50: concentration required to give 50% cell kill; for Rf (JLD/JLC): IC50 in JLD divided by IC50 in JLC, atypical drug resistance
Description: as §4

[7] = system: drug resistant human non-small cell lung carcinoma cell line COR-L23/R which overexpresses multidrug resistance associated protein (MRP); assay: Cytotoxicity, drug resistant COR-L23/R cell line (SRB assay); assay type: cell-based; settings: for Rf (resistance factor): IC50 in L23/R divided by IC50 in L23/P, MRP-dependant MDR
Description: as §5, §6

[8] = as above; assay type: cell-based, human; settings: Homo sapiens, COR-L23/R; concentration required to give 50% cell kill; 5–6 days incubation
Description: as §5, §6

[9] = system: Jurkat human leukaemia cell line (JLC); assay: Cytotoxicity, Jurkat leukaemia cell line JLC; assay type: cell-based; settings: concentration required to give 50% cell kill
Description: as §4

[10] = system: H69 parental (H69/P) human small cell lung carcinoma cell line; assay: Cytotoxicity, H69 parental cell line (AlamarBlue); assay type: cell-based; settings: concentration required to give 50% cell kill, 5–6 days incubation
Description: as §2, §3

| Effective concentration range, Topoisomerase I [1] | Effective concentration range, Topoisomerase II [2] | SMILES | IC50 ([3]; Homo sapiens) | Rf (resistance factor) [3] | IC50 ([4]; Homo sapiens, Jurkat) | Rf (JLA/JLC) [4] | IC50 ([5]; Homo sapiens, COR-L23) | IC50 ([6]; Homo sapiens, Jurkat) | Rf (JLD/JLC) [6] | Rf (resistance factor) [7] | IC50 [8] | IC50 ([9]; Homo sapiens, Jurkat) | IC50 ([10]; Homo sapiens) | IC50 [3] | IC50 [4] | IC50 [5] | IC50 [6] | IC50 ([7]; concentration required to give 50% cell kill, 5–6 days incubation) | IC50 [9] | IC50 [10] |
| --- | --- | --- | --- | --- | --- | --- | --- | --- | --- | --- | --- | --- | --- | --- | --- | --- | --- | --- | --- | --- |
| 0.1 to 3.0 µM | 0.1 to 3.0 µM | COc1cccc2c1ccc1nc3cccc(C(=O)NCCN(C)C)c3nc12 [Compound 3, 4-Methoxy-benzo[a]phenazine-11-carboxylic acid (2-dimethylamino-ethyl)-amide] | 49 nM | 1.4 | 21.6 nM | 0.8 | 14.4 nM | 24.3 nM | 0.9 | 1.4 | 19.9 nM | 27 nM | 35 nM |  |  |  |  |  |  |  |
| 0.03 to 1.0 µM | 0.03 to 1.0 µM | COc1cccc2c1ccc1nc3cccc(C(=O)N[C@H](C)CN(C)C)c3nc12 [Compound 78, 4-Methoxy-benzo[a]phenazine-11-carboxylic acid (2-dimethylamino-1-(R)-methyl-ethyl)-amide] | 31 nM | 1.3 | 14 nM | 0.7 | 7.6 nM | 17 nM | 0.8 | 1.2 | 8.9 nM | 21 nM | 24 nM |  |  |  |  |  |  |  |

| SMILES | Effective concentration range, Topoisomerase I [1] | Effective concentration range, Topoisomerase II [2] | IC50 ([3]; Homo sapiens) | Rf (resistance factor) [3] | IC50 ([4]; Homo sapiens, Jurkat) | Rf (JLA/JLC) [4] | IC50 ([5]; Homo sapiens, COR-L23) | IC50 ([6]; Homo sapiens, Jurkat) | Rf (JLD/JLC) [6] | Rf (resistance factor) [7] | IC50 [8] | IC50 ([9]; Homo sapiens, Jurkat) | IC50 ([10]; Homo sapiens) | IC50 [3] | IC50 [4] | IC50 [5] | IC50 [6] | IC50 ([7]; concentration required to give 50% cell kill, 5–6 days incubation) | IC50 [9] | IC50 [10] |
| --- | --- | --- | --- | --- | --- | --- | --- | --- | --- | --- | --- | --- | --- | --- | --- | --- | --- | --- | --- | --- |
| CN(C)CCNc1nc2cc(O)ccc2c2c1C(=O)c1ccccc1-2 [TAS-103, reference compound] | 0.3 to 10.0 µM | 0.3 to 10.0 µM |  | 1.1 |  | 55.9 |  |  | 71.1 | 1.3 |  |  |  | 22 nM | 302 nM | 16.3 nM | 384 nM | 22 nM | 5.4 nM | 21 nM |
